Measured values reported in US20220235057A1, “CYCLIC FORMYL AND CYCLIC KETONE COMPOUNDS, PREPARATION METHOD THEREFOR, AND PHARMACEUTICAL USE” (priority 2019, published 2022).
≈ marks a conversion by molar mass, not a printed value.

Columns and labels:
Assay type in all cases: cell-based
dengue virus (DENV) = assay: anti-dengue virus activity (EC50)
Usutu virus (USUV) = assay: anti-Usutu virus activity (inhibition rate); settings: Usutu virus
Zika virus (ZIKV) = assay: anti-Zika virus activity (inhibition rate); settings: Zika virus; Drug concentration 11 μM
Zika virus = assay: anti-Zika virus activity (EC50)
[1] = tested on: drug resistant strains of Acinetobacter baumannii; assay: anti-drug resistant strains of Acinetobacter baumannii (MIC)

Q: `O=C1[C@@H]2CCc3ccccc3N2[C@@H](Cc2ccccc2)N1Nc1ccc([N+](=O)[O-])cc1` [ZXD-107A] was tested. Which EC50 (dengue virus (DENV)) did it give?
A: The EC50 was 120 nM.

Q: What about the inhibition at 11 µM (Usutu virus (USUV); Drug concentration 11 μM) of the same compound?
A: The inhibition at 11 µM was < 0%.

Q: What about the inhibition at 33 µM (Usutu virus (USUV); Drug concentration 33 μM) of the same compound?
A: Its inhibition at 33 µM is < 0%.

Q: And the inhibition at 11 µM (Zika virus (ZIKV))?
A: Its inhibition at 11 µM is > 100%.

Q: `O=C1C2CCc3ccccc3N2C(c2ccc(Cl)cc2)N1Nc1ccccc1` (stereo not drawn) [ZXD-87A] was tested. Which EC50 (Zika virus) did it give?
A: Its EC50 is 3400 ± 380 nM.

Q: `C=C(C)c1ccc(C2N(Nc3ccccc3)C(=O)C3CCc4ccccc4N32)cc1` (stereo not drawn) [ZXD-89A] was tested. Which EC50 (dengue virus (DENV)) did it give?
A: The EC50 was 740 nM.

Q: With `O=C1[C@H]2CCc3ccccc3N2C(Cc2ccc([N+](=O)[O-])cc2)N1Nc1ccccc1` (stereo partly drawn) [ZXD-100A] as the compound, how does the EC50 (dengue virus (DENV)) read?
A: The EC50 was 2000 nM.

Q: Which EC50 (dengue virus (DENV)) does the source give for `COc1ccc([C@H]2N(Nc3ccc([N+](=O)[O-])cc3)C(=O)[C@@H]3Cc4ccccc4N32)cc1OC` [ZDL-89] here?
A: The EC50 was 11600 nM.

Q: For `O=C(NNc1ccccc1)C1CCc2ccccc2N1` (stereo not drawn) [ZXD-44], which EC50 (dengue virus (DENV)) is on record?
A: The EC50 was 1500 nM.

Q: What about the MIC ([1]; resistant strain of Acinetobacter baumannii no. 17) of the same compound?
A: Its MIC is 4 µg/mL (≈ 15 µM).

Q: And the MIC ([1]; resistant strain of Acinetobacter baumannii no. 18)?
A: The MIC was 8 µg/mL (≈ 29.9 µM).

Q: And the MIC ([1]; resistant strain of Acinetobacter baumannii no. 19)?
A: The MIC was 8 µg/mL (≈ 29.9 µM).

Q: What about the MIC ([1]; resistant strain of Acinetobacter baumannii no. 20) of the same compound?
A: Its MIC is 2 µg/mL (≈ 7.48 µM).

Q: `CC(C)(C)[Si](C)(C)Oc1ccc(C2N(Nc3ccc([N+](=O)[O-])cc3)C(=O)C3CCc4ccccc4N32)cc1` (stereo not drawn) [ZXD-132A] was tested. Which EC50 (dengue virus (DENV)) did it give?
A: The EC50 was 640 nM.

Q: `COc1ccc(C2c3c([nH]c4ccccc34)C(=O)N2Nc2ccc([N+](=O)[O-])cc2)cc1OC` (stereo not drawn) [ZFD-33A + B] was tested. Which EC50 (Zika virus) did it give?
A: The EC50 was 17200 nM.

Q: `COc1cc(C2N(Nc3ccccc3)C(=O)C3CCc4ccccc4N32)ccc1O[Si](C)(C)C(C)(C)C` (stereo not drawn) [ZXD-142A] was tested. Which EC50 (dengue virus (DENV)) did it give?
A: Its EC50 is 1600 nM.

Q: And the EC50 (Zika virus)?
A: Its EC50 is 1560 ± 210 nM.

Q: With `O=C1[C@@H]2CCc3ccccc3N2[C@@H](Cc2ccc(O)cc2)N1Nc1ccccc1` [ZXD-127B] as the compound, how does the EC50 (dengue virus (DENV)) read?
A: The EC50 was 5200 nM.

Q: Which EC50 (dengue virus (DENV)) does the source give for `O=C1[C@@H]2CCc3ccccc3N2[C@@H](c2ccc([N+](=O)[O-])cc2)N1Nc1ccc([N+](=O)[O-])cc1` [ZXD-78A] here?
A: The EC50 was 170 nM.

Q: `O=C1[C@@H]2CCc3ccccc3N2[C@@H](Cc2ccc([N+](=O)[O-])cc2)N1Nc1ccccc1` [ZXD-100B] was tested. Which EC50 (dengue virus (DENV)) did it give?
A: Its EC50 is 850 nM.

Q: `O=C1C2CCCCN2C(c2ccco2)N1c1ccc([N+](=O)[O-])cc1` (stereo not drawn) [ZBJ-12A] was tested. Which EC50 (dengue virus (DENV)) did it give?
A: The EC50 was 1200 nM.
